The text below walks through data of patent US10730887B2, “Compound containing tricyclic heteroaryl group” (Hangzhou Innogate Pharma Co., Ltd., priority 2016, dated 2020).

As a reminder, the pIC50 is the IC50 on a negative log10 scale, so that one unit is a factor of ten.

pIC50: −log10 of the molar value. Some results are limits rather than exact numbers.

This assay deals with FAK (Homo sapiens, UniProt Q05397). Nature of the assay: FAK kinase activity inhibition, Latha screen analysis. Format: biochemical. As to the method:
FAK protein kinase activity was determined by Latha screen analysis. The compound was dissolved in DMSO and diluted with kinase buffer (25 mM HEPES, pH 7.5, 0.01 mM Triton, 10 mM MgCl2, 0.5 mM EGTA, 0.01% BRIJ-35, 2 mM DTT), 2.5 μL was added to the 384-well plate 4 times the final concentration of the compound (4% DMSO). After adding 5 μL of 2-fold FAK enzyme solution, incubate for 10 minutes at room temperature, and then add 2.5 μL of 4 times substrate (Fluorescein-polyGT and ATP) solution. After incubating for 30 minutes at 25° C., 10 μL of the detection solution (antibody of phosphorylation site 2 nM and EDTA 10 mM) was added to terminate the reaction. The data emitted at […] and emitted at 520 nm was read from Envision, and the luminescence reading data was copied from the Envision program, and the value of the luminescence reading was converted to the percent inhibition by a formula. The conversion rate was converted into inhibition rate data (% inhibition rate=(max−conversion rate)/(max−min)*100). “min” is the control fluorescence reading for the reaction without enzyme: “max” is the fluorescence reading of the sample with DMSO added as a control. Curves were plotted with compound concentration and inhibition rate on the horizontal and vertical coordinates, and the curve was fitted using XLFit excel add-in version 4.3.1 software and IC50 was calculated.

Sequence of FAK (Q05397 whole entry, species assumed): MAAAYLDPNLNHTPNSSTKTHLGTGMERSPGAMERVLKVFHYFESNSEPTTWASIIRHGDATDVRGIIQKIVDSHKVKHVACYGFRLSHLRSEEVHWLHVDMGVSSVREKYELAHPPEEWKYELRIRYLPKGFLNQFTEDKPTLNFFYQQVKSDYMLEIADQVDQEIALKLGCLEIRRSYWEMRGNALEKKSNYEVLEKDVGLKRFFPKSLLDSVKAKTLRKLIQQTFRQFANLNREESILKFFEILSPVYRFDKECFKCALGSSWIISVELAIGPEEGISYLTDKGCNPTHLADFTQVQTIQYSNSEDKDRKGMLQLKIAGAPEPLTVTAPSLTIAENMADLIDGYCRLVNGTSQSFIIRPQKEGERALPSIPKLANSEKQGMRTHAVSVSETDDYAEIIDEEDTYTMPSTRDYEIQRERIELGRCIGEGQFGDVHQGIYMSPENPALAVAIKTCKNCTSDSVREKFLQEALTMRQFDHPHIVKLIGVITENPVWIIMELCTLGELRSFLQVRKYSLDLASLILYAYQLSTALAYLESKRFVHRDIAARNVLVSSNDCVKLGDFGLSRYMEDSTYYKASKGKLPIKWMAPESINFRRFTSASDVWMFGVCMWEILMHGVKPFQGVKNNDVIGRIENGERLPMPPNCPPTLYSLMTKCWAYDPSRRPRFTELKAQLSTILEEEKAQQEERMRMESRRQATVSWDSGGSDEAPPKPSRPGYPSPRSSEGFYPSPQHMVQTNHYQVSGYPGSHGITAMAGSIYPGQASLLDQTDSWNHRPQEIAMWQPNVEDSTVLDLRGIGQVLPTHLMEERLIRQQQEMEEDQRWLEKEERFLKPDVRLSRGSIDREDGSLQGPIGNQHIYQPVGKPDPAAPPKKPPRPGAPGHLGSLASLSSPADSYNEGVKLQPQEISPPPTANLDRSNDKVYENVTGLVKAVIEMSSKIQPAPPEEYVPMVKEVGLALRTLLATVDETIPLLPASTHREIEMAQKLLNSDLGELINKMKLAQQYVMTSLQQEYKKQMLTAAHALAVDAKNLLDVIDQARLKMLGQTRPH

Consider `CNC(=O)c1ccccc1Nc1cc(Nc2ccc3c(c2)OC[C@H]2CN(C)CCN32)ncc1C(F)(F)F` [Compound E1R], for which the pIC50 is more than 9.00. Under `CNC(=O)c1ccccc1Nc1cc(Nc2ccc3c(c2)OC[C@@H]2CN(C)CCN32)ncc1C(F)(F)F` [Compound E1S] stands more than 9.00; under `CNC(=O)c1ccccc1Nc1cc(Nc2ccc3c(c2)OCC2COCCN32)ncc1C(F)(F)F` (stereo not drawn) [Compound E1], more than 9.00.
